Here are results for four compounds from PMC8708600, “Depth of the Steroid Core Location Determines the Mode of Na,K-ATPase Inhibition by Cardiotonic Steroids” (International Journal of Molecular Sciences, 2021).

One assay has as its target NKA in E2P-conformation. More on the design: method as in PMID 33318128. The settings on record: read-out: Kd for binding to E2P-conformation; cited from earlier work.
The subject of the next assay is NKA from pig kidneys. Conditions: read-out: IC50 measured for the enzyme from pig kidneys; cited from earlier work.
Assay [1] addresses T1, α1S-Na,K-ATPase from pig kidneys (Sus scrofa, UniProt P05024).
T1 construct: In contrast to α1S-NKA from pig kidneys; from tissue; host or cells: pig kidney
Kind of assay: Hydrolytic Na,K-ATPase activity (enzyme coupled assay), CTS in incubation medium. The class given is biochemical. As to the method: (§1) NKA activity was estimated as ATP cleavage using the enzyme coupled assay method. Incubation medium (2 mL) contained 130 mM NaCl, 20 mM KCl, 4 mM MgCl2, 3 mM ATP, […] (pH 7.4), 1 mM phosphoenolpyruvate, 0.2 mM NADH, 0.18 MM; NADH and pyruvate kinase (600–1000 units/mL)/lactate dehydrogenase (900–1400 units/mL). […] Incubation was carried out at 37 °C, and the concentration of Na,K-ATPase in the sample was 0.4–0.6 μg/mL. […] To determine IC50, 2 μg NKA was preincubated with CTSs in the incubation medium for 10 min, and after that, the reaction was started by the addition of ATP.
(§2) The plots describing the dependence of the NKA hydrolytic activity on CTSs concentration in the incubation medium were made using the Origin 8.1 program (OriginLab Corp., Northampton, MA, USA). They were fitted by hyperbola. The dependence of the Na,K-ATPase hydrolytic activity on the CTSs’ concentration in the preincubation media was fitted to the Hill 1 function: y=y0+ymax−y0x^n/k^n+x^n, where y—Na,K-ATPase activity; x—concentration of CTS; k—inhibition constant; n—Hill coefficient. Fitting was performed using Origin 8.1 software.

In assay [2] the target is T2, α1R-Na,K-ATPase from rat kidneys (Rattus norvegicus, UniProt P06685).
T2 construct: α1R-NKA from rat kidneys was transferred into the buffer by dialysis; from tissue; host or cells: rat kidney
The description is as above. The class given is biochemical. The settings on record: for inhibition of α1R-NKA activity (in words): concentration up to 500 μM. As to the method:
as §1, §2

Assay [3] has as its target T3, α1R-Na,K-ATPase in E2P-conformation (Rattus norvegicus, UniProt P06685).
T3 construct: α1R-NKA from rat kidneys was transferred into the buffer by dialysis; from tissue; host or cells: rat kidney
As to the kind of experiment: biochemical. The class given is binding. How it is done:
(§3) The thermodynamic parameters of CTSs’ binding to the pig and rat NKA were measured using the MicroCal iTC200 instrument (MicroCal, Northampton, MA, USA), as described earlier. α1S-NKA (pig) was transferred into E2P-conformation in the following way: enzyme preparations (5 mg) were suspended in 3 mL of buffer 10 mM imidazole, 3 mM Tris/Pi (pH 7.4), 1 mM EDTA, 0.1 mM DTT and 3 mM MgCl2 (E2P-conformation). DTT was added to the buffer immediately before the experiment. Suspensions of enzymes were centrifuged at 138,000 g for 90 min, and the pellets obtained were suspended in the buffer. α1R-NKA from rat kidneys was transferred into the buffer by dialysis.
(§4) Experiments were carried out at 37 °C. CTSs were diluted by a buffer that was used for enzyme suspension. Aliquots (2.5 μL) of ligands were injected into a 0.2 mL cell containing the protein solution to achieve a complete binding isotherm. The protein concentration on the cell ranged from 10 to 20 μM, and the ligand concentration in the syringe ranged from 50 to 200 μM. When we used digoxin or marinobufagenin, stock solutions were prepared using 100% DMSO, and then stock solutions were diluted to needed concentrations by the corresponding buffer; after that, aliquots were added to the cell. The medium with a protein of interest contained DMSO in the same concentration.
(§5) The resulting titration curves were fitted using the MicroCal Origin software, assuming one set of binding sites. Affinity constants (Ka) and enthalpy variations (ΔH) were determined, and the Gibbs energy (ΔG) and entropy variations (ΔS) were calculated from the equation:ΔG = −RTlnKa = ΔH – TΔS.

The target in assay [4] is T4, α1S-Na,K-ATPase in E2P-conformation (Sus scrofa, UniProt P05024).
T4 construct: In contrast to α1S-NKA from pig kidneys; from tissue; host or cells: pig kidney
Kind of assay: biochemical. The format is binding, pig. As to the method: as §3, §4, §5

For assay [5], the target named is T5, α1R-Na,K-ATPase from rat kidney in E2P-conformation (Rattus norvegicus, UniProt P06685).
T5 construct: α1R-NKA from rat kidneys was transferred into the buffer by dialysis; from tissue; host or cells: rat kidney
The format is biochemical. As to the method: (§6) To identify a mode of enzyme inhibition by CTSs after their binding to different enzyme conformations, we preincubated NKA in the medium containing 30 MM imidazole (pH 7.4), 3 mM MgCl2, 3 mM Pi/Tris and 1 mM EDTA (E2P-conformation). Solutions of CTSs were made using 100% DMSO with a final concentration of ouabain 100 mM and digoxin and marinobufagenin at 10 mM. Then an aliquot of the corresponding stock solution was added to the preincubation medium to obtain a final CTSs concentration.
(§7) After enzyme preincubation with different concentrations of CTSs for several minutes, the reaction was started by transferring the aliquot of the solution containing 0.25–2.5 μg of NKA from the preincubation medium into the incubation one. The concentration of CTSs was decreased by this procedure by 50–100 times. […] That time interval was equal to 10 min for E2P-conformation of pig and rat kidney enzymes. The control sample was preincubated under the same conditions with a concentration of DMSO that was added to the experimental medium with the corresponding CTS.
as §2

The target of assay [6] is T6, α1S-Na,K-ATPase from pig kidneys in E2P-conformation (Sus scrofa, UniProt P05024).
T6 construct: In contrast to α1S-NKA from pig kidneys; from tissue; host or cells: pig kidney
The class given is biochemical. How it is done:
as §6, §7, §2

Assay [7] deals with NKA from duck salt glands (α1β1-isoform), E2P-conformation. More on the design: method as in PMID 26297827. Conditions: cited from earlier work; for pKd: read-out: Kd, binding to E2P-conformation of NKA.
In a further assay the test system is renal epithelial cells. The arrangement: method as in PMID 15494417. Conditions: ion transport by NKA inhibited by 50% at these concentrations; cited from earlier work.
Where [8] appears, read: CTS in incubation medium, 37 °C, hyperbola fit, read-out: IC50, inhibition of α1S-NKA hydrolytic activity.
Where [9] appears, read: as restated in discussion, read-out: IC50 evaluated in our experiments.
The mark [10] stands for this setting: ITC, E2P-conformation, pH 7.4, 37 °C.
Where [11] appears, read: ITC, E2P-conformation, pH 7.4, 37 °C, calculated as Kd = 1/Ka, read-out: Kd (dissociation constant).
Setting [12] is: ITC, pH 7.4, 37 °C, ΔG = −RTlnKa.
Where [13] appears, read: after preincubation with enzyme in E2P-conformation and dilution.
Setting [14] is: ITC, E2P-conformation, pH 7.4, 37 °C, nd = not detected.

Molecules are shown by their SMILES. pIC50, pKd: −log10 of the molar value. Several values for one entry are separate records, joined by “and”; a condition that tells them apart may be missing. Equal entries are not always repeated. Entries after “also recorded” stand apart in the source; their conditions may differ. Where two headings read alike, the source gives them in different places.

Take `C[C@]12CC[C@H](O)C[C@H]1CC[C@@H]1[C@@H]2CC[C@]2(C)[C@@H](c3ccc(=O)oc3)CC[C@]12O` [bufalin]: the pKd at NKA in E2P-conformation was 6.90. Moreover, in the assay on NKA from pig kidneys, the pIC50 is 6.96.

The compound `C[C@H]1O[C@@H](O[C@H]2[C@@H](O)C[C@H](O[C@H]3[C@@H](O)C[C@H](O[C@H]4CC[C@@]5(C)[C@H](CC[C@@H]6[C@@H]5C[C@@H](O)[C@]5(C)[C@@H](C7=CC(=O)OC7)CC[C@]65O)C4)O[C@@H]3C)O[C@@H]2C)C[C@H](O)[C@@H]1O` [digoxin] showed a pIC50 in assay [1] (IC50, inhibition of α1S-NKA hydrolytic activity) of 5.92. The negative-log IC50 (pIC50) in [1] (IC50 evaluated in our experiments) is 5.70. The compound further gave a negative logarithm of the IC50 (pIC50) in assay [2] of 3.60. Further, at NKA in E2P-conformation, the pKd is 6.90. For the same compound, the “binding of α1R-NKA to CTS (in words)” value in assay [3] is “no measurable binding”. The “entropy component (−TΔS)” value in [4] is -2.0 kcal/mol. Moreover, in assay [4] (pH 7.4), the “TΔS (entropy variation)” value is on record as 2.0 kcal/mol; the “n (reaction stoichiometry)” value turned out to be 0.5 ± 0.1; the “ΔG (Gibbs energy)” value was -9.9 kcal/mol; the “ΔH (enthalpy variation)” value is -7.9 ± 0.6 kcal/mol and -7.9 kcal/mol. Moreover, the pIC50 with NKA from pig kidneys is 5.71. The “mode of interaction with α1R-NKA (in words)” value in [5] is reported as “reversible”. Moreover, in assay [6], the Hill coefficient is 1.90 ± 0.21 and 1.70 ± 0.33 and 1.99 ± 0.27; the “mode of α1S-NKA inhibition (in words)” value is “pseudo-irreversible inhibitors”.

As for `C[C@]12CC[C@H](O)C[C@@]1(O)CC[C@@H]1[C@@H]2CC[C@]2(C)[C@@H](c3ccc(=O)oc3)C[C@H]3O[C@]132` [marinobufagenin], the figures for the pIC50 (in assay [1] (setting [8]); in [1] (setting [9]); in the assay on NKA from pig kidneys) were 6.10, 5.92 and 5.82, respectively. Further, the “inhibition of α1R-NKA activity (in words)” value in assay [2] is “does not inhibit this isoform at all”; in [2] (listed as Marinobufagenin), “does not inhibit”. Also, the negative logarithm of the Kd (pKd) in assay [7] is 5.77; in assay [4] (setting [11]), 5.63; in [4] (ITC, Table 1 value as quoted in discussion, read-out: Kd for binding to E2P-conformation), 5.64. The “binding of α1R-NKA to CTS (in words)” value in assay [3] (ITC, association constants below 2 × 10^4 M^−1 cannot be measured) is listed as “no measurable binding”. In addition, the “concentration inducing renal epithelial cells death” value in the assay with renal epithelial cells is recorded as “about 1 μM”. For the same compound, in assay [4] (ITC, 37 °C), the “entropy component (−TΔS)” value is -2.8 kcal/mol. Moreover, in assay [4] (ITC, E2P-conformation, 37 °C), the “affinity of α1S-NKA for marinobufagenin lower than that for digoxin” value is ~11 times. Also, the “affinity of α1S-NKA for marinobufagenin lower than that for ouabain” value in assay [4] (ITC, E2P-conformation, 37 °C) was “about 44 times”. In addition, in assay [4] (setting [10]), the “Ka (association constant)” value is listed as 4.3 × 10^5 * M^−1. Moreover, the “TΔS (entropy variation)” value in assay [4] (setting [10]) is reported as 2.8 kcal/mol. The “n (reaction stoichiometry)” value in assay [4] (setting [10]) is 1.7 ± 0.2. Besides, the “ΔH (enthalpy variation)” value in assay [4] (setting [10]) is -5.2 ± 0.3 kcal/mol; in assay [4] (ITC, E2P-conformation, pH 7.4, 37 °C, listed as MBG), -5.2 kcal/mol. The “ΔG (Gibbs energy)” value in [4] (setting [12]) was -7.9 kcal/mol. The “mode of α1S-NKA inhibition (in words)” value in assay [6] (setting [13]) was “reversible inhibitor; also recorded: reversibly”.

Take `C[C@@H]1O[C@@H](O[C@H]2C[C@@H](O)[C@]3(CO)[C@H]4[C@H](O)C[C@]5(C)[C@@H](C6=CC(=O)OC6)CC[C@]5(O)[C@@H]4CC[C@]3(O)C2)[C@H](O)[C@H](O)[C@H]1O` [ouabain]: the pIC50 was 5.70 in assay [1] (setting [8]); 6.10 in [1] (setting [9]); 3.85 in assay [2] (CTS in incubation medium, 37 °C, hyperbola fit, read-out: IC50, inhibition of rat enzyme (α1R-NKA) hydrolytic activity); 6.05 in the assay on NKA from pig kidneys. The pKd on NKA in E2P-conformation was 7.06; in [7], 7.00; in [3] (setting [11]) it was 5.49; in assay [4] (setting [11]), 7.28. Further, the “higher affinity of ouabain binding in comparison to marinobufagenin” value in assay [7] (E2P-conformation) was 17 fold. For the same compound, in assay [3] (ITC, 37 °C), the “entropy component (−TΔS)” value was -3.4 kcal/mol. The “TΔS (entropy variation)” value in [3] (setting [10]) was 3.4 kcal/mol; in [4] (setting [10]), -11.3 kcal/mol. For the same compound, the “Ka (association constant)” value in [3] (setting [14]) is 3.1 × 10^5 * M^−1; in [4] (setting [10]), 1.9e+07 M⁻¹. Further, the entries for the “n (reaction stoichiometry)” value in assay [3] (setting [14]) and in [4] (setting [10]) were 0.6 ± 0.1 and 0.7 ± 0.2, respectively. In addition, the “ΔH (enthalpy variation)” value in assay [3] (setting [14]) is -4.3 ± 0.7 kcal/mol and -4.3 kcal/mol; in [4] (setting [10]), -21.6 ± 0.7 kcal/mol and -21.6 kcal/mol. Further, the “ΔG (Gibbs energy)” value in assay [3] (setting [12]) was -7.7 kcal/mol; in [4] (setting [12]), -10.3 kcal/mol. Further, the “ouabain affinity for α1R-NKA lower than for α1S-NKA” value in assay [3] (ITC, α1R versus α1S) is on record as 60 times. Further, the “concentration inducing renal epithelial cells death” value in the assay on renal epithelial cells was ~0.1 µM. The “mode of interaction with α1R-NKA (in words)” value in assay [5] (after preincubation with enzyme and dilution) is “reversibly; also recorded: reversible”. Besides, the Hill coefficient was 1.89 ± 0.14 in assay [6] (CTS in preincubation medium, 40 nM of the enzyme); 1.96 ± 0.19 in [6] (CTS in preincubation medium, 80 nM of the enzyme); 1.91 ± 0.09 in assay [6] (CTS in preincubation medium, 400 nM of the enzyme). In assay [6] (setting [13]), the “mode of α1S-NKA inhibition (in words)” value is on record as “pseudo-irreversible inhibitors”.

As a reminder, the pKd is the negative decadic logarithm of the Kd, by convention in mol/L. By pIC50 is commonly meant the IC50 on a negative log10 scale, so that one unit is a factor of ten. As usually defined, the Hill coefficient is the slope factor of the fitted curve.
